# Values quoted from earlier work as cited in patent US9102664B2, “Process for the preparation of triazole antifungal drug, its intermediates and polymorphs thereof” (MSN Laboratories Limited, priority 2011, dated 2015).
# Key:
# [1] = produced per U.S. Pat. No. 5,661,151 using 6N HCl in methanol
# [2] = under the conditions investigated in WO 99/18097
Compound,stability of amorphous form [1],stability of crystalline form [2]
"CC[C@@H]([C@H](C)O)n1ncn(-c2ccc(N3CCN(c4ccc(OC[C@@H]5CO[C@@](Cn6cncn6)(c6ccc(F)cc6F)C5)cc4)CC3)cc2)c1=O [Amorphous form of posaconazole, posaconazole]",not stable,
"CC[C@@H]([C@H](C)O)n1ncn(-c2ccc(N3CCN(c4ccc(OC[C@@H]5CO[C@@](Cn6cncn6)(c6ccc(F)cc6F)C5)cc4)CC3)cc2)c1=O [form II, posaconazole]",,unstable
